Assay results from paper PMC4537502 (Psychopharmacology, 2015).

Assays:
[1] = tested on: habituated rats; settings: 15.9 mg/kg, ref Rung et al. [2008], Ponten et al. [2010]; cited from earlier work
[2] = target: D2R; set-up: method as in Pettersson et al. [2010]; settings: ref Pettersson et al. [2010]; read-out: high-affinity Ki at D2R; cited from earlier work
[3] = tested on: Arc gene expression; settings: rats, 10 mg/kg, ref Waters et al. [2014]; cited from earlier work
[4] = target: T1, sigma-1R (Rattus norvegicus, UniProt Q9R0C9); test: microPET with ^11C-SA4503, Logan graphical analysis and Cunningham-Lassen plot (sigma-1R occupancy); assay type: in vivo; settings: for sigma-1R occupancy: rat brain, Cunningham-Lassen plot
T1 construct: from tissue; host or cells: brain of living rats (Wistar Unilever), in vivo microPET
Procedure: (§1) Because of limited availability of the test drug, the 60 mg/kg dose group was scanned only with ^11C-raclopride.
(§2) After drug administration and about 20 min before each microPET scan, animals were anesthetized with isoflurane (Pharmachemie BV, Haarlem, Netherlands). […] Both tracers were injected as a slow bolus (1 ml of saline-diluted tracer solution infused during a period of 1 min), using a Harvard-style injection pump.
From these samples, 25 μl of whole blood was collected and plasma (25 μl) was then obtained by centrifugation of the remaining sample (5 min at 13,000×g). Radioactivity in plasma and whole blood was determined using a calibrated gamma counter (CompuGamma CS1282, LKB-Wallac, Turku, Finland). Results are expressed as standardized uptake values (SUV), defined as [(plasma activity concentration (MBq/g) × body weight (g) / injected dose (MBq)]. Rat plasma was assumed to have a specific gravity of 1 g/ml.
(§3) Two rats were scanned in each scan session. They were positioned on heating mats in a microPET Focus 220 system, in transaxial position above each other with their brains in the field of view. Body temperature of the animals was kept close to normal with electronic temperature controllers. Heart rate and oxygen level of the blood during the scan were monitored using pulse oximeters (PulseSense, Nonin). […] A list mode protocol was used with a 76-min acquisition time.
(§4) Image reconstruction was performed using microPET Manager 2.3.3.6 (Siemens). The PET data were split according to position along the y-axis, so that a separate data set was acquired for each animal. The list mode data of the emission scans were reframed in a dynamic sequence of 6 × 10, 4 × 30, 2 × 60, 1 × 120, 1 × 180, 4 × 300, and 3 × 600 s (with an additional 960-s frame for the rat that was injected first). The data were reconstructed per time frame employing an iterative reconstruction algorithm (OSEM2D with Fourier rebinning, 4 iterations, and 16 subsets). […] Data sets were corrected for decay, random coincidences, scatter, and attenuation.
Logan graphical analysis was used to calculate regional tracer distribution volumes (VT). The starting time of the Logan fit was 20 min. Metabolite-corrected plasma radioactivity data were used as input function, and (uncorrected) whole blood radioactivity served to estimate the contribution of blood to brain radioactivity measured by the PET camera. […] The PMOD software package was used for curve fitting.

[5] = tested on: 6-hydroxydopamine-hemilesioned rats; settings: 7.9 mg/kg, ref Ponten et al. [2013]; cited from earlier work
[6] = target: dopamine D2 receptor (D2R) (Rattus norvegicus, UniProt P61169); test: in vivo
Procedure: as §1, §2, §3, §4
In ^11C-raclopride scans of the brain, three-dimensional regions of interest (ROIs) were manually drawn over the left and right striatum and cerebellum, using the program ASIPro 6.3.3.0 (Siemens). […] Time-activity curves (TACs) were generated for these regions (Fig. 1). The results are expressed as dimensionless standardized uptake values (PET-SUV), defined as [(tissue activity concentration (MBq/g) × body weight (g) / injected dose (MBq)]. Brain tissue was assumed to have a specific gravity of 1 g/ml.
Plateau values for the striatum-to-cerebellum ratio were derived from this curve fit.

[7] = tested on: rats; settings: 15.9 mg/kg, ref Rung et al. [2008], Ponten et al. [2010]; cited from earlier work
[8] = tested on: D2R; settings: cited from earlier work
[9] = tested on: dopamine release in striatum; settings: rats, 1.7 mg/kg, ref Ponten et al. [2010]; cited from earlier work
[10] = target: sigma-1R; settings: ^3H-(+)-pentazocine competition, ref Sahlholm et al. [2013]; read-out: high-affinity Ki at sigma-1R; cited from earlier work
[11] = rat, 3 and 15 mg/kg pridopidine

Sequence of dopamine D2 receptor (D2R) (P61169 whole entry): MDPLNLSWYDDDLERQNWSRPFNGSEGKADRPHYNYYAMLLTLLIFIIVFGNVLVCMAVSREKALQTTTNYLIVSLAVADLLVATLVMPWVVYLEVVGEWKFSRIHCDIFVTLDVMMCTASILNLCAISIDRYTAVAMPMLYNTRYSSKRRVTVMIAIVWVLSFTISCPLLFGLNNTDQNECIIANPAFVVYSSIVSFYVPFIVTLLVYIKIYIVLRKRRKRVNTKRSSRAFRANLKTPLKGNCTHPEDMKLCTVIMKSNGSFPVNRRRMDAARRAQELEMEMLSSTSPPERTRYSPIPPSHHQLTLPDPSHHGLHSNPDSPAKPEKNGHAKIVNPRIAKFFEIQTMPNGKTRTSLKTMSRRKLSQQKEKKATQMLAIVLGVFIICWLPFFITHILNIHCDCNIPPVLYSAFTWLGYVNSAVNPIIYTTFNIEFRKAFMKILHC
T1 sequence (Q9R0C9 whole entry): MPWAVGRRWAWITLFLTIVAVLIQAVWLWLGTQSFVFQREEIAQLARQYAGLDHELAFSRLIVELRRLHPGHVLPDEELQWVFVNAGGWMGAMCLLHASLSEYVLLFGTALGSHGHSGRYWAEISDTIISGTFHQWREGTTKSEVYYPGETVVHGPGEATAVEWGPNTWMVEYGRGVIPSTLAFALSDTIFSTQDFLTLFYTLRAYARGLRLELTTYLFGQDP

## CCCN1CCC(c2cccc(S(C)(=O)=O)c2)CC1 [pridopidine, 4-[3-(methylsulfonyl)phenyl]-1-propylpiperidine]
[1]
  effect on locomotor activity in habituated rats: increased locomotor activity in habituated rats
[2]
  Ki: 7.52 µM
[3]
  effect on Arc gene expression in frontal cortex: induced Arc gene expression in frontal cortex
[4]; pridopidine 3 mg/kg s.c. 60 min before tracer
  sigma-1R occupancy: 56.7 ± 2.3%
[4]; pridopidine 15 mg/kg s.c. 60 min before tracer
  sigma-1R occupancy: 84.5 ± 1.7%
[4]; rat whole brain and brain regions, 3 and 15 mg/kg pridopidine
  VT of ^11C-SA4503 (Logan graphical analysis): dose-dependent reduction in VT for all regions investigated
[4]; [11]
  area under the brain time-activity curve (AUC) of ^11C-SA4503: significantly decreased
[4]; rat, sc, read-out: sigma-1R occupancy, rat brain, pridopidine 3 mg/kg s.c. 60 min before tracer, Cunningham-Lassen plot
  receptor occupancy at 3 mg/kg: 57 ± 2%
[4]; rat, sc, read-out: sigma-1R occupancy, rat brain, pridopidine 15 mg/kg s.c. 60 min before tracer, Cunningham-Lassen plot
  receptor occupancy at 15 mg/kg: 85 ± 2%
[5]
  effect on L-DOPA-induced rotational asymmetry: decreased L-DOPA-induced rotational asymmetry in 6-hydroxydopamine-hemilesioned rats
[6]; rat striatum, 60 mg/kg pridopidine s.c.
  reduction of ^11C-raclopride binding: 44–66%
[6]; rat, 3 mg/kg pridopidine
  effect on ^11C-raclopride uptake (time-activity curves): increase tracer uptake in striatum but not in cerebellum
[6]; rat, 15 mg/kg pridopidine
  effect on ^11C-raclopride uptake (time-activity curves): increase tracer uptake in both striatum and cerebellum to a rather minor extent
[6]; rat, 60 mg/kg pridopidine
  effect on ^11C-raclopride uptake (time-activity curves): striking increase of the uptake of ^11C-raclopride in both striatum and cerebellum
[6]; [11]
  changes in ^11C-raclopride binding: No significant changes
[6]; rat, sc, read-out: D2R occupancy (SRTM fit)
  receptor occupancy at 60 mg/kg: 44%
[7]
  effect on MK-801- and amphetamine-induced hyperlocomotion: decreased MK-801- and amphetamine-induced hyperlocomotion
[8]; Sprague-Dawley rats, 10 mg/kg, ex vivo radioligand binding, ref Natesan et al. [2006]
  D2R occupancy: 35%
[8]; Sprague-Dawley rats, ex vivo radioligand binding, ref Natesan et al. [2006]
  ED50 of D2R occupancy: 18.99 mg/kg
[8]; rat, ref Natesan et al. ([2006])
  time to maximal D2R occupancy after s.c. injection: ≤ 1 h
[8]; rat, s.c., ref Natesan et al. ([2006])
  time maximal D2R occupancy is maintained: 4 h
[9]
  effect on dopamine release in striatum: increased dopamine release in striatum
[10]
  Ki: ~0.07 µM
